Results from US20050090428A1, “Porphyrins with virucidal activity” (priority 2002, published 2005).

Key:
89.6 Env = 89.6 Env (Human immunodeficiency virus type 1 group M subtype B, UniProt Q73372); assay type: cell-based, HIV-1
HSV-1(F) or HSV-2(G) = experiment: In vitro HSV inactivation, plaque assay on Vero cells; assay type: cell-based, herpes simplex virus; settings: room temperature, in the dark, up to 60 minutes
Procedure: Either HSV-1(F) or HSV-2(G) (10^7 pfu) was mixed with 1 ml of porphyrin at the concentration indicated in Dulbecco's modified Eagle's medium (DME) with 1% newborn calf serum. All assays were performed in duplicate. All tubes were wrapped in foil to keep out light, and ambient room light was reduced as much as was practicable. Virus and porphyrin were incubated together at room temperature for times up to 60 minutes (Table 2). Following incubation, 10 fold serial dilutions were performed in DME with 1% newborn serum, using tubes wrapped in foil. Virus was diluted 20,000 fold and plated on Vero cells. Following a 2 hour incubation with the cells, the inoculum was removed and cells were overlaid with DME with 1% newborn calf serum and 0.2% human gamma globulin. Cells were fixed and stained, and plaques counted, 2 days after infection.

[1] = target: T1, HIV-1 Env protein (HXB2 Env) (Human immunodeficiency virus type 1 group M subtype B, UniProt P04578); assay type: cell-based
T1 construct: expressed in transfected cells; host or cells: 293T cells transfected with pIIIenv3-1 plus pCMVTAT; cocultured with 3T3 cells expressing CD4 and CXCR4

HIV-1 IIIB = experiment: Screening for virucidal activity against HIV-1 IIIB, MAGI cell assay; settings: for inhibition of HIV-1 IIIB (percent virus inactivated), screening assay: 50 μg/ml, 1 hr in the dark, diluted 10-fold, MAGI cells, without removal of free compound; for activity against HIV in words: MAGI screening assay, HIV-1 IIIB
[2] = target: T2, binding of HIV-1 IIIB gp120 to CD4 (Human immunodeficiency virus type 1 group M subtype B, UniProt P04578); experiment: gp120-CD4 binding assay (ELISA); settings: 1 hr at room temperature
T2 construct: The recombinant IIB gp120 protein (baculovirus-expressed) was obtained from Intracel; purchased Intracel (Cambridge, Mass.) for gp120; host or cells: baculovirus-expressed (gp120)
Procedure: To investigate the possible effect of porphyrin compounds on binding of HIV-1 IIIB gp120 to CD4, a gp120 CD4 binding assay was developed. The assay was developed as a modification of a capture gp120 ELISA kit (Intracel Corporation). Briefly, a 96-well plate was coated with soluble CD4 and 0.5 μg of HIV-1 IIIB gp120 per well was incubated in the presence or absence of test compounds for 1 hr at room temperature. After four washes with buffer to remove unbound proteins, the bound gp120 was detected by anti-gp120 peroxidase-conjugated antibodies and quantitated by the protocol provided by the manufacturer.

IIIB Env of HIV 1 = IIIB Env of HIV 1 (Human immunodeficiency virus type 1 group M subtype B, UniProt P03375); assay type: cell-based

89.6 Env, sequence (Q73372 32-719 limits assumed): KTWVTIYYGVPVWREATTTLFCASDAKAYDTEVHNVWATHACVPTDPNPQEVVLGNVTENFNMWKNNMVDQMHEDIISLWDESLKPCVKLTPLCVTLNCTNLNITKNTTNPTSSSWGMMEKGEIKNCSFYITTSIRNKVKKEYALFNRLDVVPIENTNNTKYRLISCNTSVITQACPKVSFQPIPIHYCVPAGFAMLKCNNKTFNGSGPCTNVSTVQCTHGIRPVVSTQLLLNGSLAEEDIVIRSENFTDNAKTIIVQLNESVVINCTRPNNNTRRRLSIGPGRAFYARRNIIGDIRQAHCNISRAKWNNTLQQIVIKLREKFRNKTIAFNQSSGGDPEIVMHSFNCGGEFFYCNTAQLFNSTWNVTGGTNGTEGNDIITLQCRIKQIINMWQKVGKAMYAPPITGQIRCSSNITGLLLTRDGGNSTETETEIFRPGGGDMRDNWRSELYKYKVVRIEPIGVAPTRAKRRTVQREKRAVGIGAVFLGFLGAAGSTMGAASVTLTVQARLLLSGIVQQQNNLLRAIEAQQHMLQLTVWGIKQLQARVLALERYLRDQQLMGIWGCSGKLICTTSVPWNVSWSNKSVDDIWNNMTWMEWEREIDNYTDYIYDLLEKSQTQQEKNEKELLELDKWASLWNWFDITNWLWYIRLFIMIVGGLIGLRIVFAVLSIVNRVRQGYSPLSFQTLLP
89.6 Env, sequence (Q73372 509-719 partner limits assumed): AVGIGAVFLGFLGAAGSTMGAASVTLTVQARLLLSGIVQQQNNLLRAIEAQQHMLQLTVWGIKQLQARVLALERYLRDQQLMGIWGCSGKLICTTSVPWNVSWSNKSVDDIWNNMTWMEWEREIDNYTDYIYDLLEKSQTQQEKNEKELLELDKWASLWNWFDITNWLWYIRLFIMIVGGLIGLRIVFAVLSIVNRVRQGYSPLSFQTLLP

| Compound | Presence of nuclei in syncytia, VV89.6 envt X4, 23 h (89.6 Env) | inactivating HSVs (HSV-1(F) or HSV-2(G)) | Presence of nuclei in syncytia, pIIIenv X4, 6 h [1] | inhibition of HIV-1 IIIB (percent virus inactivated), screening assay (HIV-1 IIIB) | further results |
| --- | --- | --- | --- | --- | --- |
| O=S(=O)(O)c1ccc(-c2c3nc(c(-c4ccc(S(=O)(=O)O)cc4)c4ccc([n-]4)c(-c4ccc(S(=O)(=O)O)cc4)c4ccc([n-]4)c(-c4ccc(S(=O)(=O)O)cc4)c4nc2C=C4)C=C3)cc1.[Ni+2] [TPPS4,Ni] | −/3+ (key: 4+: more than 50% of nuclei are in syncytia; 3+: 30 to 50% of nuclei are in syncytia; 2+: 30 to 10% of nuclei are in syncytia; +: less than 10% of nuclei are in syncytia; −: no syncytia were observed) |  |  |  | Presence of nuclei in syncytia, VV89.6 envt R5, 6 h (89.6 Env): −/1+; Presence of nuclei in syncytia, VV89.6 envt X4, 6 h (89.6 Env): −/3+ |
| tetrakis(2-chlorosulfonatophenyl)porphyrin |  | active |  |  |  |
| O=S(=O)(O)c1ccc(-c2c3nc(c(-c4ccc(S(=O)(=O)O)cc4)c4ccc([nH]4)c(-c4ccc(S(=O)(=O)O)cc4)c4nc(c(-c5ccc(S(=O)(=O)O)cc5)c5ccc2[nH]5)C=C4)C=C3)cc1 [TPPS4, mesotetra(4-sulfonatophenyl)porphine] | −/4+ (key: 4+: more than 50% of nuclei are in syncytia; 3+: 30 to 50% of nuclei are in syncytia; 2+: 30 to 10% of nuclei are in syncytia; +: less than 10% of nuclei are in syncytia; −: no syncytia were observed) |  | − | 93% | Presence of nuclei in syncytia, VV89.6 envt R5, 23 h (89.6 Env): 1+/4+ (key: 4+: more than 50% of nuclei are in syncytia; 3+: 30 to 50% of nuclei are in syncytia; 2+: 30 to 10% of nuclei are in syncytia; +: less than 10% of nuclei are in syncytia; −: no syncytia were observed); Presence of nuclei in syncytia, VV89.6 envt X4, 6 h (89.6 Env): −/4+ |
| Cc1cc(C)c(S(=O)(=O)O)c(C)c1-c1c2nc(c(-c3c(C)cc(C)c(S(=O)(=O)O)c3C)c3ccc([n-]3)c(-c3c(C)cc(C)c(S(=O)(=O)O)c3C)c3nc(c(-c4c(C)cc(C)c(S(=O)(=O)O)c4C)c4ccc1[n-]4)C=C3)C=C2.[Co+2] [TMPS,Co] |  | active |  | about 80% |  |
| sulfonated 2,6-difluoroTPP [TPP(2,6-F2)S] | 1+/4+ (key: 4+: more than 50% of nuclei are in syncytia; 3+: 30 to 50% of nuclei are in syncytia; 2+: 30 to 10% of nuclei are in syncytia; +: less than 10% of nuclei are in syncytia; −: no syncytia were observed) | active | − |  | inhibition of gp120/CD4 binding in words [2]: completely inhibit binding; Presence of nuclei in syncytia, VV89.6 envt R5, 23 h (89.6 Env): 1+/4+ (key: 4+: more than 50% of nuclei are in syncytia; 3+: 30 to 50% of nuclei are in syncytia; 2+: 30 to 10% of nuclei are in syncytia; +: less than 10% of nuclei are in syncytia; −: no syncytia were observed); activity against HIV in words (HIV-1 IIIB): most active |
| O=S(=O)(O)c1ccc(C2=C3C=CC(=N3)[C-](c3ccc(S(=O)(=O)O)cc3)C3=NC(=C(c4ccc(S(=O)(=O)O)cc4)c4[cH-]cc(n4)C(c4ccc(S(=O)(=O)O)cc4)=C4C=CC2=N4)C=C3)cc1.[Cu+2] (stereo not shown) [TPPS4,Cu] |  | active | − | 97% | inhibition of gp120/CD4 binding [2]: 80-100%; inhibition of HIV-induced cell fusion in words (IIIB Env of HIV 1): Complete inhibition; activity against HIV in words (HIV-1 IIIB): intermediate levels of activity |
| O=C(O)c1ccc(-c2c3nc(c(-c4ccc(C(=O)O)cc4)c4ccc([nH]4)c(-c4ccc(C(=O)O)cc4)c4nc(c(-c5ccc(C(=O)O)cc5)c5ccc2[nH]5)C=C4)C=C3)cc1 [TPPC4] |  | active |  |  |  |
| O=S(=O)(O)c1ccc(-c2c3nc(c(-c4ccc(S(=O)(=O)O)cc4)c4ccc([nH]4)c(-c4ccc(S(=O)(=O)O)cc4)c4nc(c(-c5ccccc5)c5ccc2[nH]5)C=C4)C=C3)cc1.[Cu] [TPPS3,Cu] |  | active |  |  |  |
| O=S(=O)(O)c1ccc(-c2c3nc(c(-c4ccc(S(=O)(=O)O)cc4)c4ccc([nH]4)c(-c4ccc(S(=O)(=O)O)cc4)c4nc(c(-c5ccc(S(=O)(=O)O)cc5)c5ccc2[nH]5)C=C4)C=C3)cc1.[Zn] [TPPS4,Zn] |  | active |  |  |  |
| tetrakis(2-fluorosulfonatonatophenyl)porphyrin,Cu |  | active |  |  |  |
| O=S(=O)(O)c1ccc(-c2c3nc(c(-c4ccc(S(=O)(=O)O)cc4)c4ccc([n-]4)c(-c4ccc(S(=O)(=O)O)cc4)c4nc(c(-c5ccc(S(=O)(=O)O)cc5)c5ccc2[n-]5)C=C4)C=C3)cc1.[Pd+2] [TPPS4,Pd] | −/4+ (key: 4+: more than 50% of nuclei are in syncytia; 3+: 30 to 50% of nuclei are in syncytia; 2+: 30 to 10% of nuclei are in syncytia; +: less than 10% of nuclei are in syncytia; −: no syncytia were observed) |  | − |  | Presence of nuclei in syncytia, VV89.6 envt R5, 6 h (89.6 Env): −/4+; Presence of nuclei in syncytia, VV89.6 envt R5, 23 h (89.6 Env): −/4+ (key: 4+: more than 50% of nuclei are in syncytia; 3+: 30 to 50% of nuclei are in syncytia; 2+: 30 to 10% of nuclei are in syncytia; +: less than 10% of nuclei are in syncytia; −: no syncytia were observed); Presence of nuclei in syncytia, VV89.6 envt X4, 6 h (89.6 Env): −/4+ |
| sulfonated 2-fluoroTPP [TPP2FS] | 1+/4+ (key: 4+: more than 50% of nuclei are in syncytia; 3+: 30 to 50% of nuclei are in syncytia; 2+: 30 to 10% of nuclei are in syncytia; +: less than 10% of nuclei are in syncytia; −: no syncytia were observed) | active | − | about 80% | inhibition of gp120/CD4 binding [2]: 81%; Presence of nuclei in syncytia, VVenvl X4, 6 h (IIIB Env of HIV 1): −/4+; Presence of nuclei in syncytia, VVenvl X4, 23 h (IIIB Env of HIV 1): −/4+ (key: 4+: more than 50% of nuclei are in syncytia; 3+: 30 to 50% of nuclei are in syncytia; 2+: 30 to 10% of nuclei are in syncytia; +: less than 10% of nuclei are in syncytia; −: no syncytia were observed); Presence of nuclei in syncytia, VV89.6 envt R5, 6 h (89.6 Env): 4+/4+ (key: 4+: more than 50% of nuclei are in syncytia; 3+: 30 to 50% of nuclei are in syncytia; 2+: 30 to 10% of nuclei are in syncytia; +: less than 10% of nuclei are in syncytia; −: no syncytia were observed); Presence of nuclei in syncytia, VV89.6 envt R5, 23 h (89.6 Env): 4+/4+ (key: 4+: more than 50% of nuclei are in syncytia; 3+: 30 to 50% of nuclei are in syncytia; 2+: 30 to 10% of nuclei are in syncytia; +: less than 10% of nuclei are in syncytia; −: no syncytia were observed) |
| O=S(=O)(O)c1ccc(-c2c3nc(c(-c4ccc(S(=O)(=O)O)cc4)c4ccc([nH]4)c(-c4ccc(S(=O)(=O)O)cc4)c4nc(c(-c5ccccc5)c5ccc2[nH]5)C=C4)C=C3)cc1.[Zn] [TPPS3,Zn] |  | active |  |  |  |
| O=S(=O)(O)c1ccc(Cl)c(-c2c3nc(c(-c4c(Cl)ccc(S(=O)(=O)O)c4Cl)c4ccc([nH]4)c(-c4c(Cl)ccc(S(=O)(=O)O)c4Cl)c4nc(c(-c5c(Cl)ccc(S(=O)(=O)O)c5Cl)c5ccc2[nH]5)C=C4)C=C3)c1Cl [tetrakis(2,6dichlorosulfonatonatophenyl)porphyrin] |  | active |  |  |  |
| sulfonated 4-chloroTPP [TPP4ClS] |  |  |  | about 97% | inhibition of gp120/CD4 binding [2]: 85%; activity against HIV in words (HIV-1 IIIB): most active |
